Assay results: PMC6315428, “Quantification of α-Thujone and Its Metabolites in Human Urine after Consumption of a Sage Infusion Using Stable Isotope Dilution Assays” (Toxins, 2018)

Assays:
[1] = Human study: urinary excretion of α-thujone and hydroxythujones after consumption of a sage infusion (SIDA, SPME-GC-MS and LC-MS/MS); type: in vivo, humans; conditions: for detection in urine of the volunteers: after consumption of 575.0 µg α-thujone, hydroxythujones after liberation from glucuronides/sulfates; for minimum degree of glucuronidation/sulfation: human urine, calculated from two samples with free hydroxythujones above LOQ; for Total excretion in human urine: 575 µg α-thujone as sage infusion, urine over 24 h; for time after which no additional excretion was observed: after ingestion of sage infusion, all but test person 2 for 7-OH; for maximum concentration in urine: volunteer with the highest dose of 14.3 µg/kg bw, after sage infusion
Experimental: The protocol of the study was approved by the Ethics Committee of the Faculty of Medicine of the Technische Universität München (1996/07). Written informed consent was obtained from participants before inclusion into the study. Seven healthy, non-smoking volunteers, six Caucasian, participated in the study (3 men and 4 women, mean (±standard deviation [SD]) age 29.7 (±9.21) years, and mean (±SD) body mass index 23.1 (±5.08) kg/m^2). For 24 h prior to the study, the volunteers avoided herbs and spices containing α-thujone for a wash out. A blank urine sample was collected as a control from each volunteer before consumption of the sage infusion. On an empty stomach, the volunteers drank the tea (575 µg α-thujone) within 10 min, and urine was collected at 1, 1.5, 2.5, 3.5 h, and in the time frames of 4.5–6, 6–8, 8–14, 14–24 h after consumption. A defined meal (cheese sandwich) was eaten after 2 h. The samples were stored at 4 °C until preparation for analysis.
The cooled samples were adjusted with HCl to pH 5 and divided into 2 mL aliquots. A solution containing the labeled hydroxythujones (220–430 ng) and β-glucuronidase (5000 units/mL sample; 1 unit liberates […] phenolphthalein from its glucuronide per hour at pH 5.0 at 37 °C) was added, and the mixture stirred at 37 °C for 15 h. Afterwards, the samples were centrifuged (16000 rpm, 4 °C, 15 min) and the supernatant was subjected to solid phase extraction (SPE).
The SPE tubes (ENVI-18, 100 mg, Supelco) were equilibrated with 2 × 1 mL methanol and 2 × 1 mL water. Thereafter, the clear supernatant was loaded on the columns and was slowly passed through without suction. The protein residue was reextracted with water/methanol (95:5, 1 mL), and also loaded on the SPE tubes. The tubes were washed with water/methanol (95:5, 2 × 1 mL) by suction, and then dried carefully. Analytes were slowly eluted with water/acetonitrile (50:50, 500 µL). The extracts were analyzed by LC-MS/MS.
Measurements on the LC-MS/MS were performed using a Shimadzu LC-30A Prominence system (Shimadzu, Kyoto, Japan) interfaced to an LCMS-8050 Triple Quadrupol mass spectrometer (Shimadzu, Kyoto, Japan). A total of 40 µL was injected onto a YMC Pro Pack C4 at 30 °C oven temperature and flow of 0.5 mL/min with water (solvent A) and ACN (solvent B). The gradient was started and held at 5% B for 2 min, raised linearly from 5% B to 30% B during the next 1 min, then raised linearly to 33% within the next 7 min, and to 100% B within the next 1 min. Thereafter, the mobile phase returned to 5% B within 2 min, and the system was equilibrated for 18 min before the next run. The atmospheric pressure chemical ionization (APCI) source was operated in the positive mode under the following conditions: nebulizing gas flow 3 L/min; interface temperature 350 °C; desolvation line temperature 200 °C; drying gas flow 5 L/min. For MS/MS of the hydroxythujones, the mass transitions (m/z precursor ion/ m/z product ion) 151/81 (collision energy = −17 V) and 151/123 (−14 V) for 2-OH, 151/109 (−13 V) and 151/91 (−23 V) for 4-OH, 151/105 (−18 V) and 151/81 (−17 V) for 7-OH, 157/129 (−14 V) and 157/87 (−15 V) for d6-2-OH, […] (−16 V) and 157/91 (−23 V) for d6-4-OH, and 157/129 (−14 V) and 157/99 (−16 V) for d6-7-OH were used.
To determine the hydroxythujone content in urine, calibration functions for 2-OH, 4-OH, and 7-OH were generated with the respective labeled compounds. Calibrators with unlabeled and labeled compounds were prepared in an aqueous solution, in seven different ratios for the unlabeled compounds ranging from 3.1–601.9 µg/mL, while maintaining the labelled compounds constant at concentrations of 450 µg/mL each. The samples were measured by LC-MS/MS. From the relation of area ratios to molar ratios, calibration curves were constructed. […]

[2] = set-up: method as in PMID 11368559; conditions: mouse urine; cited from earlier work
[3] = test system: gamma-aminobutyric acid A (GABAA) receptor; set-up: method as in PMID 10725394; conditions: leads to convulsions and excitations at higher concentrations in animal studies; cited from earlier work
[4] = set-up: method as in PMID 20425757; conditions: cited from earlier work
[5] = recently deduced; cited from earlier work
[6] = test person 1, dose/bw 14.3 µg/kg, after glucuronide/sulfate deconjugation
[7] = test person 2, dose/bw 11.4 µg/kg, after glucuronide/sulfate deconjugation
[8] = test person 3, dose/bw 8.2 µg/kg, after glucuronide/sulfate deconjugation
[9] = test person 4, dose/bw 6.7 µg/kg, after glucuronide/sulfate deconjugation
[10] = test person 5, dose/bw 8.9 µg/kg, after glucuronide/sulfate deconjugation
[11] = test person 6, dose/bw 4.6 µg/kg, after glucuronide/sulfate deconjugation
[12] = test person 7, dose/bw 7.6 µg/kg, after glucuronide/sulfate deconjugation

**Q.** With `CC(C)[C@@]12C[C@@H]1[C@@H](C)C(=O)[C@@H]2O` [2-OH, 2-hydroxythujone] as the compound, how does the “detection in urine of the volunteers” value [1] read?
**A.** not being detectable

**Q.** And the “detection in urine of the volunteers” value ([1]; listed as 2-Hydroxythujone)?
**A.** not present

**Q.** And the degree of glucuronidation [2]?
**A.** 85%

**Q.** Which “effect on GABAA receptor” value [3] does the source give for `CC(C)[C@]12CC(=O)[C@H](C)[C@H]1C2` [thujone] here?
**A.** inhibits

**Q.** Which results are given for `CC(C)[C@]12CC(=O)[C@@](C)(O)[C@H]1C2` [4-OH, 4-hydroxythujone]?
**A.** detection in urine of the volunteers [1]: detectable; minimum degree of glucuronidation/sulfation [1]: ≥ 66%; Total excretion in human urine [1, 6]: 13.9 µg; Total excretion in human urine [1, 7]: 17.9 µg; Total excretion in human urine [1, 8]: 14.6 µg; Total excretion in human urine [1, 9]: 11.8 µg; Total excretion in human urine [1, 10]: 16.5 µg; Total excretion in human urine [1, 11]: 17.0 µg; Total excretion in human urine [1, 12]: 26.3 µg; time after which no additional excretion was observed ([1]; urine): 7 to 8 h; degree of glucuronidation [2]: 61%

**Q.** Which “dose recovered as the sum of 2-, 9-, 3- and 7-hydroxy-1,8-cineole” value [4] does the source give for `CC12CCC(CC1)C(C)(C)O2` [1,8-cineole] here?
**A.** 52.5%

**Q.** Which results are given for `C[C@H]1C(=O)C[C@]2(C(C)(C)O)C[C@H]12` [7-OH, 7-hydroxythujone]?
**A.** detection in urine of the volunteers [1]: detectable; minimum degree of glucuronidation/sulfation [1]: ≥ 55%; Total excretion in human urine [1, 6]: 15.6 µg; Total excretion in human urine [1, 7]: 20.9 µg; Total excretion in human urine [1, 8]: 8.6 µg; Total excretion in human urine [1, 9]: 4.0 µg; Total excretion in human urine [1, 10]: 7.8 µg; Total excretion in human urine [1, 11]: 6.9 µg; Total excretion in human urine [1, 12]: 5.9 µg; time after which no additional excretion was observed ([1]; urine): 7 to 8 h; slower excretion until ([1]; urine, test person 2): 16 h; degree of glucuronidation [2]: 2%

**Q.** Which results are given for `CC(C)[C@]12CC(=O)[C@H](C)[C@H]1C2` [α-thujone]?
**A.** detection in urine of the volunteers [1]: detectable; detection in urine of the volunteers ([1]; listed as α-Thujone): detectable in a low amount; time after which urine concentration fell under the LODs ([1]; most volunteers): 4.5 h; Total excretion in human urine ([1]; test person 1, dose/bw 14.3 µg/kg): 0.0451 µg; Total excretion in human urine ([1]; test person 2, dose/bw 11.4 µg/kg): 0.008 µg; Total excretion in human urine ([1]; test person 3, dose/bw 8.2 µg/kg): 0.0361 µg; Total excretion in human urine ([1]; test person 4, dose/bw 6.7 µg/kg): 0.0163 µg; Total excretion in human urine ([1]; test person 5, dose/bw 8.9 µg/kg): 0.0107 µg; Total excretion in human urine ([1]; test person 6, dose/bw 4.6 µg/kg): 0.025 µg; Total excretion in human urine ([1]; test person 7, dose/bw 7.6 µg/kg): 0.0351 µg; time within which excreted ([1]; urine, almost all volunteers): ≤ 8 h; maximum concentration in urine [1]: 94.3 ng/L; maximum concentration in urine ([1]; listed as α-Thujone): 94 ng/L; acceptable daily intake [5]: 110 µg/kg bw/d
